Here are results for six compounds from patent publication US11787809B2 (NIHON NOHYAKU CO., LTD., priority 2015, dated 2023).

Where two headings read alike, the source gives them in different places.

One assay concerns Laodelphax striatella. The assay can be described thus: Insecticidal test on Laodelphax striatella (rice seedling dip). It is filed as in vivo. Particulars: Laodelphax striatellus, 192 h, read-out: insecticidal effect (corrected mortality rate). An excerpt: Insecticidal Test on Laodelphax striatella
The oxime group-containing condensed heterocyclic compounds represented by the general formula (1) of the present invention or salts thereof were separately dispersed in water and diluted to 500 ppm, and rice plant seedlings (variety: Nihonbare) were dipped in the agrochemical dispersions for 30 seconds. After air-dried, each seedling was put into a separate glass test tube and inoculated with ten 3rd-instar larvae of Laodelphax striatella, and then the glass test tubes were capped with cotton plugs. At 8 days after the inoculation, the numbers of surviving larvae and dead larvae were counted, the corrected mortality rate was calculated according to the formula shown below, and the insecticidal effect was evaluated according to the criteria of Test Example 1. Corrected mortality rate (%)=100×(Survival rate in a non-treatment plot−Survival rate in a treatment plot)/Survival rate in a non-treatment plot [Math. 2]

The test system of a further assay is Plutella xylostella. In words: Insecticidal test on Plutella xylostella (dip of Chinese cabbage seedlings with laid eggs). In kind it is in vivo. Particulars: 144 h. The text has this: Insecticidal Test on Plutella xylostella
Adults of Plutella xylostella were released onto Chinese cabbage seedlings and allowed to lay eggs thereon. At 2 days after the release of the adults, the Chinese cabbage seedlings with laid eggs were dipped for about 30 seconds in agrochemical dispersions diluted to 500 ppm, each of which contained a different kind of oxime group-containing condensed heterocyclic compound represented by the general formula (1) of the present invention as an active ingredient. After air-dried, the seedlings were kept in a thermostatic chamber at 25° C. At 6 days after the dip treatment, the number of hatched larvae per plot was counted, the mortality rate was calculated according to the formula shown below, and the insecticidal effect was evaluated according to the criteria of Test Example 1. This test was conducted in triplicate using 10 adults of Plutella xylostella per plot. Corrected mortality rate (%)=100×(Number of hatched larvae in a non-treatment plot−Number of hatched larvae in a treatment plot)/Number of hatched larvae in a non-treatment plot [Math. 3]

[1] abbreviates: 500 ppm, rice seedlings (Nihonbare) dipped 30 seconds, ten 3rd-instar larvae, 8 days after inoculation, criteria of Test Example 1.
The mark [2] stands for this setting: 500 ppm, Chinese cabbage seedlings with laid eggs dipped about 30 seconds, 25° C., 6 days after dip treatment, criteria of Test Example 1, read-out: insecticidal effect (corrected mortality rate, hatched larvae).

By mortality is commonly meant the share of the test organisms that died. In the case of `CCS(=O)(=O)c1cc(C=NO)cnc1-c1nc2cc(C(F)(F)F)cnc2n1C` [Compound 2-3], the mortality at 500 ppm in the assay on Laodelphax striatella (setting [1]) and with Plutella xylostella (setting [2]) was 100% each time.

For the compound `CCS(=O)(=O)c1cc(C=NOCC(F)(F)F)cnc1-c1nc2cc(C(F)(F)F)cnc2n1C` [Compound 2-33], the mortality at 500 ppm in the assay with Laodelphax striatella (setting [1]) and in the assay with Plutella xylostella (setting [2]) was 100% throughout.

Regarding `CCS(=O)(=O)c1ccc(C=NO)nc1-c1nc2cc(C(F)(F)F)nnc2n1C` [Compound 3-1], the mortality at 500 ppm in the assay on Laodelphax striatella (in Oryza sativa) worked out at 100%; in the assay with Plutella xylostella (in Brassica rapa, read-out: insecticidal effect (corrected mortality rate, hatched larvae)), 100%.

As to `CCS(=O)(=O)c1ccc(C=NOCC(F)(F)F)nc1-c1nc2cc(C(F)(F)F)nnc2n1C` [Compound 3-2], the mortality at 500 ppm in the assay on Laodelphax striatella (setting [1]) and in the assay with Plutella xylostella (setting [2]) was 100% each time.

With `CCS(=O)(=O)c1cc(/C=N/O)cnc1-c1nc2cc(SC(F)(F)F)ccc2o1` [Compound 4-11], the mortality at 500 ppm in the assay on Laodelphax striatella (setting [1]) and with Plutella xylostella (setting [2]) was 100% each time.

As to `CCS(=O)(=O)c1cc(/C=N/OCC(F)(F)F)cnc1-c1nc2cc(SC(F)(F)F)ccc2o1` [Compound 4-12], the mortality at 500 ppm in the assay on Laodelphax striatella (setting [1]) and with Plutella xylostella (setting [2]) was 100% each time.
